Among the test systems are 786-0; ACHN; CCRF-CEM; HCT-116; HL-60; KM12; MDA-MB-435; MDA-N; Malme-3M; OVCAR-3; SK-MEL-28; SK-MEL-5; SNB-19; SNB-75; SW-620; UACC-257; UO-31; DU-145; MCF7; T47D.
Test in all cases: inhibition of tumour cell growth, NCI panel, 48 h

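Results reflect a 48-hour exposure of cells in 96-well plates to compound at five concentrations. GI50: concentration for 50% inhibition of growth.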 Active and inactive are the calls of the source. Cut-off read from the data, not from the text of the source: active = GI50 up to about 1.1 µM and inactive = higher. Bounds are passed on as bounds.

On to `CC(=O)Oc1c2oc3cc(O)c(O)cc3c2c(OC(C)=O)c2oc3cc(O)c(O)cc3c12` [POLYOZELLIN], for which the GI50 with 786-0 was 25.2 µM (inactive); in the assay with ACHN it was 20.8 µM (inactive); with CCRF-CEM, 2.57 µM (inactive); in the assay on HCT-116, 18.7 µM (inactive); with HL-60, 3.08 µM (inactive); in the assay with KM12, 20.3 µM (inactive). Further, the GI50 in the assay on MDA-MB-435 is 1.82 µM (inactive); with MDA-N, 23.6 µM (inactive); in the assay on Malme-3M, 17.1 µM (inactive); in the assay with OVCAR-3, > 10 µM (inactive); in the assay with SK-MEL-28, 21.1 µM (inactive); with SK-MEL-5, 18.6 µM (inactive). In addition, the GI50 in the assay with SNB-19 is 23.7 µM (inactive); in the assay with SNB-75 it was 15.8 µM (inactive); in the assay on SW-620 it was 23.2 µM (inactive); in the assay with UACC-257, 19.4 µM (inactive); in the assay on UO-31 it was 21 µM (inactive).

On to `CCOC(=O)C(NC(=O)OC(C)(C)C)C(=O)OCC`, for which the GI50 with 786-0, in the assay on ACHN, with CCRF-CEM, in the assay with DU-145, with HCT-116 and in the assay on KM12 was > 100 µM (inactive) each time. Also, the GI50 in the assay with MCF7 is > 100 µM (inactive); in the assay with MDA-MB-435, > 100 µM (inactive); with SK-MEL-28, > 100 µM (inactive); in the assay on SK-MEL-5 it was 64.1 µM (inactive); with SNB-19, > 100 µM (inactive); in the assay with SNB-75, > 100 µM (inactive). For the same compound, the GI50 with SW-620, in the assay with T47D, with UACC-257 and in the assay with UO-31 was > 100 µM (inactive) throughout.

Turning to `[C-]#[N+]C(C)(C)C[C@H]1CC(C)C2CCC(C)C3([N+]#[C-])CCC(=C)C1[C@H]23` (stereo partly drawn), the GI50 with 786-0 is 2.34 µM (inactive); in the assay with ACHN, 0.169 µM (active); in the assay on CCRF-CEM, 2.37 µM (inactive); with HCT-116 it was 0.184 µM (active); in the assay with HL-60, 0.601 µM (active); with KM12 it was 0.308 µM (active). For the same compound, the GI50 in the assay on Malme-3M is 5.86 µM (inactive); in the assay with OVCAR-3 it was 2.36 µM (inactive); in the assay with SK-MEL-28 it was 11.3 µM (inactive); with SK-MEL-5, 2.67 µM (inactive); in the assay on SNB-19, 2.22 µM (inactive); in the assay on SNB-75, 8.32 µM (inactive). In addition, the results for the GI50 in the assay on SW-620, with UACC-257 and in the assay with UO-31 were 5.08 µM (inactive), 0.959 µM (active) and 0.251 µM (active), respectively.

Turning to `Cc1cc(N(CCC#N)CCC#N)ccc1/C=C1N=C(/C=C\c2ccccc2)N(c2ccc(C(=O)O)cc2)C\1=O`, the GI50 with 786-0, in the assay with ACHN, in the assay with CCRF-CEM, in the assay on HCT-116, with HL-60 and in the assay on KM12 was > 100 µM (inactive) in each case. In addition, the GI50 in the assay on Malme-3M, in the assay with OVCAR-3, in the assay on SK-MEL-28, with SK-MEL-5, in the assay with SNB-19 and in the assay on SNB-75 was > 100 µM (inactive) in each case. Besides, the GI50 with SW-620, with UACC-257 and in the assay on UO-31 was > 100 µM (inactive) throughout.

As to `Cc1cn(CCCCC2=NCCCN2)c(=O)[nH]c1=O`, the GI50 in the assay with 786-0 was > 23.9 µM (inactive); in the assay on ACHN it was > 25.2 µM (inactive); in the assay with DU-145, > 26.6 µM (inactive); with HCT-116, > 23.3 µM (inactive); in the assay on KM12 it was > 31.3 µM (inactive); in the assay with MCF7, > 26.3 µM (inactive). Also, the GI50 was > 26.7 µM (inactive) in the assay on MDA-MB-435; > 100 µM (inactive) in the assay on MDA-N; > 26.7 µM (inactive) in the assay with OVCAR-3; > 26.2 µM (inactive) with SK-MEL-28; > 28.1 µM (inactive) with SK-MEL-5; > 52.8 µM (inactive) in the assay on SNB-19. In addition, the GI50 in the assay with SW-620 is > 28.3 µM (inactive); with UACC-257, > 26.2 µM (inactive); in the assay with UO-31, > 24.8 µM (inactive).

The values above are taken from ChEMBL document CHEMBL1201862, “PubChem BioAssay data set” (2004).
